For test [1], the target named is T1, human B1R (bradykinin receptor 1) (Homo sapiens, UniProt P46663).
T1 construct: expressed in transfected cells; host or cells: CHO K1 cells
T1 sequence (P46663 1-353): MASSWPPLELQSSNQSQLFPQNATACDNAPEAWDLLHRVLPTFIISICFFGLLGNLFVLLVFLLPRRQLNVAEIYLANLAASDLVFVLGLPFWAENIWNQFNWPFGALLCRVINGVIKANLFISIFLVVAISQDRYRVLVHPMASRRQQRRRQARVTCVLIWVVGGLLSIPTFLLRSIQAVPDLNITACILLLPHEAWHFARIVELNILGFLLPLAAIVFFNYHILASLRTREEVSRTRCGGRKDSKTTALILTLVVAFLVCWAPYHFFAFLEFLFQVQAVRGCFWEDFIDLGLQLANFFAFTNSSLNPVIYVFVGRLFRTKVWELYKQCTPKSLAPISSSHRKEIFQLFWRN
In words: FLIPR Ca2+ assay (Fluo-4) on CHO K1 cells stably transfected with the human B1R gene (hB1R cells): % inhibition at 10 μM / IC50, agonist Lys-Des-Arg9-bradykinin. The format is cell-based. The note with it: for inhibition at 10 µM: CHO-K1, human B1R. The gist of the method: (§1)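 Stably transfected CHO K1 cells loaded with Fluo-4 and read on FLIPR (λex 488, λem 540 nm; peak fluorescence). Test substance (10 μM) added first, then after 10–20 min the agonist at EC80; % inhibition versus maximum achievable inhibition. IC50 from several concentrations, n=2–3, N≥2.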

The target in test [2] is T2, rat B1R (bradykinin receptor 1) (Rattus norvegicus, UniProt P97583).
T2 construct: expressed in transfected cells; host or cells: CHO K1 cells
T2 sequence (P97583 1-337): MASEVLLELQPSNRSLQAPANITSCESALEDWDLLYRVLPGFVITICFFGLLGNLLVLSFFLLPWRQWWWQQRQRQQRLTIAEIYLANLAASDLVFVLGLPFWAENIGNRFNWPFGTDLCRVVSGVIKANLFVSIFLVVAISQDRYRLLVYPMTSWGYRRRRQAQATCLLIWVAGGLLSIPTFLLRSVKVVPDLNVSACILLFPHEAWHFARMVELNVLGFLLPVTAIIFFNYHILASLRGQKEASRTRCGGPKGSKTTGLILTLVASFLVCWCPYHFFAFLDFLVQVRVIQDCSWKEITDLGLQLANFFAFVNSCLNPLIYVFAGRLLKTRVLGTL
In words: FLIPR Ca2+ assay (Fluo-4) on CHO K1 cells stably transfected with the B1R gene of the rat (rB1R cells): % inhibition at 10 μM / IC50, agonist Des-Arg9-bradykinin. The format is cell-based. The conditions noted are these: for inhibition at 10 µM: CHO-K1, rat B1R. The gist of the method:
as §1

With “2-Chloro-N-[6-(2-pyridin-4-yl-2,8-diazaspiro[4.5]decane-8-carbonyl)-2,3-dihydro-1H-inden-1-yl]-6-(trifluoromethyl)-benzamide [IND_CC-205]”, the “% Inhibition (human B1R) at 10 μM” value in test [1] (human B1R) is on record as 100%. Further, the “% Inhibition (rat B1R) at 10 μM” value in test [2] (rat B1R) is reported as 103%.
For orientation: inhibition means the relative decrease from the control value, in per cent. On to `Cc1cccc(Cl)c1S(=O)(=O)NC1c2cc(C(=O)N3CCC4(CC3)CCN(c3ccncc3)CC4)ccc2CC1(C)C` (centres unmarked) [IND_CC-240, 2-Chloro-N-[2,2-dimethyl-6-(9-pyridin-4-yl-3,9-diazaspiro[5.5]undecane-3-carbonyl)-1,3-dihydro-inden-1-yl]-6-methyl-benzenesulfonic acid amide], for which the figures for the inhibition at 10 µM in test [1] and in test [2] were 95% and 99%, respectively.
Regarding `O=C(NC1CCc2ccc(C(=O)N3CCC4(CCC(n5ccnc5)CC4)CC3)cc21)c1ccccc1Cl` (centres unmarked) [Example H-131, 2-Chloro-N-[6-[9-(1H-imidazol-1-yl)-3-azaspiro[5.5]undecane-3-carbonyl]-2,3-dihydro-1H-inden-1-yl]-benzamide], the figures for the inhibition at 10 µM in test [1] and in test [2] were 74% and 102%, respectively.
Turning to `Cc1ccc2n1C(=O)N([C@@H]1CCc3ccc(C(=O)N4CCC5(CCN(c6ccncc6)CC5)C4)cc31)C2` [Example H-134, 5-Methyl-2-[(1R)-6-(8-pyridin-4-yl-3,8-diazaspiro[4.5]decane-3-carbonyl)-2,3-dihydro-1H-inden-1-yl]-1,2-dihydro-pyrrolo[2.1-e]imidazol-3-one], the values for the inhibition at 10 µM in test [1] and in test [2] were 99% and 103%, respectively.
The like results for `CN(C)C1(c2ccc(F)cc2)CCC2(CCN(C(=O)c3ccc4c(c3)C(NC(=O)c3sccc3Cl)CC4)CC2)CC1` (centres unmarked) [Ind_CC-105, 3-chloro-N-[6-[9-dimethylamino-9-(4-fluorophenyl)-3-azaspiro[5.5]undecane-3-carbonyl]-2,3-dihydro-1H-inden-1-yl]-thiophene-2-carboxylic acid amide] were, in that order, 61% and 86%.
The like results for `Cc1cc(OC(F)(F)F)ccc1C(=O)N[C@@H]1CCc2ccc(C(=O)N3CCC4(CC3)CCN(c3ccncc3)C4)cc21` [Example H-75, 2-Methyl-N-[(1R)-6-(3-pyridin-4-yl-3,8-diazaspiro[4.5]decane-8-carbonyl)-2,3-dihydro-1H-inden-1-yl]-4-(trifluoromethyloxy)-benzamide] were, in that order, 29% and 64%.
The like results for `O=C(N[C@@H]1CCc2cc(F)c(C(=O)N3CCC4(CC3)CCN(c3ccncc3)C4)cc21)c1ccccc1Cl` [Example H-89, 2-Chloro-N-[(1R)-5-fluoro-6-(3-pyridin-4-yl-3,8-diazaspiro[4.5]decane-8-carbonyl)-2,3-dihydro-1H-inden-1-yl]-benzamide] were, in that order, 99% and 103%.
For the compound `Cc1cccc(C)c1C(=O)NC1CCc2ccc(C(=O)N3CCC4(CC3)CCN(c3ccncc3)C4)cc21` (centres unmarked) [IND_CC-295, 2,6-Dimethyl-N-[6-(2-pyridin-4-yl-2,8-diazaspiro[4.5]decane-8-carbonyl)-2,3-dihydro-1H-inden-1-yl]-benzamide], the inhibition at 10 µM came out at 96% in test [1] and 106% in test [2].
The like results for `COc1ccc(C(=O)NC2CC(C)(C)c3ccc(C(=O)N4CCC5(CC4)CCN(c4ccncc4)CC5)cc32)c(Cl)c1` (centres unmarked) [IND_CC-246, 2-Chloro-N-[3,3-dimethyl-6-(3-pyridin-4-yl-3,9-diazaspiro[5.5]undecane-9-carbonyl)-1,2-dihydro-inden-1-yl]-4-methoxy-benzamide] were, in that order, 99% and 100%.
Regarding `O=C(NC1CCc2ccc(C(=O)N3CCC4(CC3)CCN(c3ccc(C(F)(F)F)cc3)CC4)cc21)c1ccccc1Cl` (centres unmarked) [IND_CC-290, 2-Chloro-N-[6-[9-[4-(trifluoromethyl)-phenyl]-3,9-diazaspiro[5.5]undecane-3-carbonyl]-2,3-dihydro-1H-inden-1-yl]-benzamide], the inhibition at 10 µM in test [1] amounted to 35%; in test [2], 100%.
The like results for `CN(C(=O)c1ccccc1Cl)C1CCc2ccc(C(=O)N3CCC4(CCN(Cc5ccncc5)CC4)CC3)cc21` (centres unmarked) [Ind_CC-109, 2-chloro-N-methyl-N-[6-[9-(pyridin-4-yl-methyl)-3,9-diazaspiro[5.5]undecane-3-carbonyl]-2,3-dihydro-1H-inden-1-yl]-benzamide] were, in that order, 33% and 29%.
For the compound `CN(C(=O)c1ccccc1C(F)(F)F)C1CCc2ccc(C(=O)N3CCC4(CC3)CCN(c3ccncc3)CC4)cc21` (centres unmarked) [Ind_CC-015, N-methyl-N-[6-(9-pyridin-4-yl-3,9-diazaspiro[5.5]undecane-3-carbonyl)-2,3-dihydro-1H-inden-1-yl]-2-(trifluoromethyl)-benzamide], the inhibition at 10 µM in test [1] is 100%; in test [2] it was 101%.
With `O=C(N[C@@H]1CCCc2ccc(C(=O)N3CC4(CCN(c5ccncc5)CC4)C3)cc21)c1ccccc1Cl` [Example H-71, 2-Chloro-N-[(1R)-7-(7-pyridin-4-yl-2,7-diazaspiro[3.5]nonane-2-carbonyl)-1,2,3,4-tetrahydro-naphthalen-1-yl]-benzamide], the inhibition at 10 µM in test [1] came to 100%; in test [2], 103%.
The matching figures for `O=C(c1cccc2c1CC[C@@H]2NS(=O)(=O)c1ccccc1Cl)N1CCC2(CCN(c3ccncc3)CC2)C1` [Example H-165, 2-Chloro-N-[(1S)-4-(8-pyridin-4-yl-3,8-diazaspiro[4.5]decane-3-carbonyl)-2,3-dihydro-1H-inden-1-yl]-benzenesulfonic acid amide]: 44% and 44%.
Take `N#Cc1ccccc1CN1CCC2(CC1)CCN(C(=O)c1ccc3c(c1)C(NC(=O)c1ccccc1Cl)CC3)CC2` (centres unmarked) [IND_CC-535, 2-Chloro-N-[6-[9-[(2-cyano-phenyl)-methyl]-3,9-diazaspiro[5.5]undecane-3-carbonyl]-2,3-dihydro-1H-inden-1-yl]-benzamide]: the inhibition at 10 µM in test [1] was determined as 49%; in test [2], 90%.
As for `O=C(NC1CCc2ccc(C(=O)N3CCC4(CC3)CCN(c3ccncc3)CC4)cc21)c1cc(C(F)(F)F)ccc1Cl` (centres unmarked) [IND_CC-217, 2-Chloro-N-[6-(9-pyridin-4-yl-3,9-diazaspiro[5.5]undecane-3-carbonyl)-2,3-dihydro-1H-inden-1-yl]-5-(trifluoromethyl)-benzamide], the values for the inhibition at 10 µM in test [1] and in test [2] were 99% and 95%, respectively.
The matching figures for `Cc1cc(N2CCC3(CCN(C(=O)c4ccc5c(c4)[C@H](NC(=O)c4ccccc4Cl)CC5)C3)CC2)ccn1` [Example H-112, 2-Chloro-N-[(1R)-6-[8-(2-methyl-pyridin-4-yl)-3,8-diazaspiro[4.5]decane-3-carbonyl]-2,3-dihydro-1H-inden-1-yl]-benzamide]: 100% and 102%.
The matching figures for `O=C(N[C@@H]1CCc2ccc(C(=O)N3CCC4(CCN(c5ccncc5)CC4)C3)cc21)c1cccc(Cl)c1Cl` [Example H-94, 2,3-Dichloro-N-[(1R)-6-(8-pyridin-4-yl-3,8-diazaspiro[4.5]decane-3-carbonyl)-2,3-dihydro-1H-inden-1-yl]-benzamide]: 100% and 98%.
The like results for `O=C(NC1CCc2ccc(C(=O)N3CCC4(CC3)CCN(c3ccc(C(F)(F)F)cc3)CC4)cc21)c1cccc(Cl)c1Cl` (centres unmarked) [IND_CC-281, 2,3-Dichloro-N-[6-[9-[4-(trifluoromethyl)-phenyl]-3,9-diazaspiro[5.5]undecane-3-carbonyl]-2,3-dihydro-1H-inden-1-yl]-benzamide] were, in that order, 84% and 105%.
Regarding `O=C(N[C@@H]1CCCc2ccc(C(=O)N3CCCC4(CCCN(c5ccncc5)C4)C3)cc21)c1ccccc1Cl` (some centres unmarked) [Example H-69], the inhibition at 10 µM was 98% in test [1] and 102% in test [2].
For the compound `Cc1cc(OC(F)(F)F)ccc1C(=O)N[C@@H]1CCc2ccc(C(=O)N3CCC4(CCN(c5ccncc5)CC4)C3)cc21` [Example H-74, 2-Methyl-N-[(1R)-6-(8-pyridin-4-yl-3,8-diazaspiro[4.5]decane-3-carbonyl)-2,3-dihydro-1H-inden-1-yl]-4-(trifluoromethyloxy)-benzamide], the inhibition at 10 µM came to 94% in test [1] and 100% in test [2].
The like results for `Cn1cncc1CN1CCC2(CC1)CCN(C(=O)c1ccc3c(c1)C(NC(=O)c1ccccc1Cl)CC3)CC2` (centres unmarked) [IND_CC-526, 2-Chloro-N-[6-[9-[(3-methyl-3H-imidazol-4-yl)-methyl]-3,9-diazaspiro[5.5]undecane-3-carbonyl]-2,3-dihydro-1H-inden-1-yl]-benzamide] were, in that order, 25% and 87%.

The record behind these values is US8455475B2 (Gruenenthal GmbH, priority 2009, dated 2013).
